Assay: Titration of polyelectrolytes and ICs with MG (zeta potential, Dh, I/c)
Assay type: physicochemical
Settings: titration of PAA-b-PEO, PArg and ICs with MG, 10 mM NaCl
Description: Dynamic (DLS) and static (SLS) light scattering measurements were performed with Brookhaven Instruments, 488 nm and 633 nm, 15 W Ion Laser System, equipped with Avalanche Photodiode Detector; DLS measurements were conducted at 90° detection angle. The light scattering titrations were performed with Malvern Zetasizer equipped with auto-titrator, at detection angle of 173°. Samples from loading experiments were analyzed with Shimadzu UV spectrophotometer (UV-3600).
MG was loaded into the ICs by simple mixing the respective solutions at predetermined ratios. FIG. 3 presents the results of titrations of the polyelectrolytes and ICs consisting of these polyelectrolytes with MG. Upon mixing, we observed no change in zeta potential except for slight increase in case of PArg at the beginning of titration. […] We observed small changes in hydrodynamic diameter (DO and normalized scattering intensity (I/c) of the aggregates, indicating bonding. This was later confirmed with NR studies.

chargeability of MG (zeta potential upon mixing): not chargeable
Compound: COc1ccc(O[C@@H]2O[C@H](CO)[C@@H](O)[C@H](O)[C@H]2O)cc1 [MG, 4-methoxyphenyl β-D-glucopyranoside]

Reference: patent publication US20200085705A1, “Method of Encapsulating Compounds” (AGENCY FOR SCIENCE, TECHNOLOGY AND RESEARCH, priority 2016, published 2020)
